Data taken from ChEMBL document CHEMBL2417538, “Antithrombotic effects of LB30870, a potent, orally active, selective and direct thrombin inhibitor, and pharmacokinetics of its prodrug” (Bioorg Med Chem Lett, 2013).
≈ marks a conversion by molar mass, not a printed value. Calls of active or inactive are those of the source. The rule behind the calls is not given here.

How the values were obtained:
[1] = Oral bioavailability in Sprague-Dawley rat at 30 mg/kg; format: ADME, organism-based; conditions: in vivo
[2] = Plasma protein binding in rat at 30 ug/ml by ultra-filtration method; format: ADME, cell-free; conditions: read-out: PPB (converted)
[3] = Plasma protein binding in human at 30 ug/ml by ultra-filtration method; format: ADME, cell-free; conditions: read-out: PPB (converted)
[4] = Cmax in Sprague-Dawley rat at 30 mg/kg, po; format: ADME, organism-based; design: dose 30 mg/kg, route oral; conditions: in vivo
Coagulation factor X = Coagulation factor X (Homo sapiens, UniProt P00742); assay: Inhibition of human factor 10a
Rattus norvegicus [5] = assay: Anticoagulant activity in Sprague-Dawley rat deep vein thrombosis model assessed as wet clot weight at 0.05 mg/kg, iv administered as bolus and 2 ug/kg/min administered as infusion (reference value: 83 +/- 5.1 mg); format: functional
Rattus norvegicus [6] = assay: Anticoagulant activity in Sprague-Dawley rat deep vein thrombosis model assessed as activated partial thromboplastin time change at 0.025 mg/kg, iv administered as bolus and 1 ug/kg/min administered as infusion relative to control; format: functional
Rattus norvegicus [7] = assay: Anticoagulant activity in Sprague-Dawley rat deep vein thrombosis model assessed as wet clot weight at 0.1 mg/kg, iv administered as bolus and 4 ug/kg/min administered as infusion (reference value: 83 +/- 5.1 mg); format: functional
[8] = Distribution coefficient, log D of the compound at pH 7 by potentiometric titration; format: physicochemical; conditions: octanol/water
[9] = Plasma protein binding in human at 5 ug/ml by ultra-filtration method; format: ADME, cell-free; conditions: read-out: PPB (converted)
Rattus norvegicus [10] = assay: Anticoagulant activity in Sprague-Dawley rat deep vein thrombosis model assessed as wet clot weight at 0.2 mg/kg, iv administered as bolus and 8 ug/kg/min administered as infusion (reference value: 83 +/- 5.1 mg); format: functional
[11] = AUC in Beagle dog at 10 mg/kg, po; format: ADME, organism-based, Canis lupus familiaris; design: dose 10 mg/kg, route oral; conditions: plasma
Plasma [12] = assay: Anticoagulant activity in monkey plasma assessed as concentration required to double activated partial thromboplastin time; format: functional, Macaca mulatta
[13] = Dissociation constant, pKa of the compound by potentiometric titration; format: physicochemical
Prothrombin [14] = target: T1, Prothrombin (Homo sapiens, UniProt P00734); assay: Inhibition of human thrombin
Plasma [15] = assay: Anticoagulant activity in rat plasma assessed as concentration required to double thrombin time; format: functional
Plasma [16] = assay: Anticoagulant activity in human plasma assessed as concentration required to double activated partial thromboplastin time; format: functional
Plasminogen = Plasminogen (Homo sapiens, UniProt P00747); assay: Inhibition of human plasmin
[17] = AUC in Sprague-Dawley rat at 30 mg/kg, po; format: ADME, organism-based; design: dose 30 mg/kg, route oral; conditions: plasma
Prothrombin [18] = target: T1, Prothrombin; assay: Inhibition of plasma clot-bound thrombin (unknown origin) using S2238 as substrate
Rattus norvegicus [19] = assay: Anticoagulant activity in Sprague-Dawley rat deep vein thrombosis model assessed as activated partial thromboplastin time change at 0.2 mg/kg, iv administered as bolus and 8 ug/kg/min administered as infusion relative to control; format: functional
Plasma [20] = assay: Anticoagulant activity in rat plasma assessed as concentration required to double activated partial thromboplastin time; format: functional
Plasma [21] = assay: Anticoagulant activity in rabbit plasma assessed as concentration required to double prothrombin time; format: functional, Oryctolagus cuniculus
[22] = Plasma protein binding in dog at 5 ug/ml by ultra-filtration method; format: ADME, cell-free, Canis lupus familiaris; conditions: read-out: PPB (converted)
Plasma [23] = assay: Anticoagulant activity in monkey plasma assessed as concentration required to double thrombin time; format: functional, Macaca mulatta
[24] = Aqueous solubility of the compound at pH 7.35; format: physicochemical; conditions: aqueous solution
[25] = Plasma protein binding in dog at 1 ug/ml by ultra-filtration method; format: ADME, cell-free, Canis lupus familiaris; conditions: read-out: PPB (converted)
Rattus norvegicus [26] = assay: Anticoagulant activity in Sprague-Dawley rat deep vein thrombosis model assessed as prothrombin time change at 0.05 mg/kg, iv administered as bolus and 2 ug/kg/min administered as infusion relative to control; format: functional
Rattus norvegicus [27] = assay: Anticoagulant activity in Sprague-Dawley rat deep vein thrombosis model assessed as prothrombin time change at 0.1 mg/kg, iv administered as bolus and 4 ug/kg/min administered as infusion relative to control; format: functional
Plasma [28] = assay: Anticoagulant activity in rabbit plasma assessed as concentration required to double thrombin time; format: functional, Oryctolagus cuniculus
Prothrombin [29] = target: T1, Prothrombin; assay: Binding affinity to thrombin (unknown origin) by surface plasmon resonance analysis
Plasma [30] = assay: Anticoagulant activity in rabbit plasma assessed as concentration required to double activated partial thromboplastin time; format: functional, Oryctolagus cuniculus
[31] = Plasma protein binding in dog at 30 ug/ml by ultra-filtration method; format: ADME, cell-free, Canis lupus familiaris; conditions: read-out: PPB (converted)
Rattus norvegicus [32] = assay: Anticoagulant activity in Sprague-Dawley rat deep vein thrombosis model assessed as reduction in wet clot weight administered as iv bolus followed by infusion relative to control; format: functional, organism-based
Plasma [33] = assay: Anticoagulant activity in monkey plasma assessed as concentration required to double prothrombin time; format: functional, Macaca mulatta
[34] = Plasma protein binding in rat at 5 ug/ml by ultra-filtration method; format: ADME, cell-free; conditions: read-out: PPB (converted)
Plasma [35] = assay: Anticoagulant activity in rat plasma assessed as concentration required to double prothrombin time; format: functional
Rattus norvegicus [36] = assay: Anticoagulant activity in Sprague-Dawley rat deep vein thrombosis model assessed as prothrombin time change at 0.25 mg/kg, iv administered as bolus and 10 ug/kg/min administered as infusion relative to control; format: functional
Homo sapiens [37] = species: Homo sapiens; assay: Selectivity ratio of Ki for human factor 10a to Ki for human thrombin
[38] = Cmax in Beagle dog at 10 mg/kg, po; format: ADME, organism-based, Canis lupus familiaris; design: dose 10 mg/kg, route oral; conditions: in vivo
[39] = Oral bioavailability in monkey; format: ADME, organism-based, Macaca mulatta; conditions: rhesus monkey, in vivo
Rattus norvegicus [40] = assay: Anticoagulant activity in Sprague-Dawley rat deep vein thrombosis model assessed as activated partial thromboplastin time change at 0.1 mg/kg, iv administered as bolus and 4 ug/kg/min administered as infusion relative to control; format: functional
[41] = Plasma protein binding in rat at 1 ug/ml by ultra-filtration method; format: ADME, cell-free; conditions: read-out: PPB (converted)
Rattus norvegicus [42] = assay: Anticoagulant activity in Sprague-Dawley rat deep vein thrombosis model assessed as activated partial thromboplastin time change at 0.25 mg/kg, iv administered as bolus and 10 ug/kg/min administered as infusion relative to control; format: functional
[43] = Plasma protein binding in human at 1 ug/ml by ultra-filtration method; format: ADME, cell-free; conditions: read-out: PPB (converted)
Rattus norvegicus [44] = assay: Anticoagulant activity in Sprague-Dawley rat deep vein thrombosis model assessed as reduction in wet clot weight at 50 ug/kg, iv administered as infusion; format: functional
[45] = Aqueous solubility of the compound at pH 4.7; format: physicochemical; conditions: aqueous solution
Rattus norvegicus [46] = assay: Anticoagulant activity in Sprague-Dawley rat deep vein thrombosis model assessed as activated partial thromboplastin time change at 0.05 mg/kg, iv administered as bolus and 2 ug/kg/min administered as infusion relative to control; format: functional
Prothrombin [47] = target: T1, Prothrombin; assay: Inhibition of free thrombin (unknown origin) using S2238 as substrate
[48] = Aqueous solubility of the compound at pH 6.62; format: physicochemical; conditions: aqueous solution
Homo sapiens [49] = species: Homo sapiens; assay: Selectivity ratio of Ki for human t-PA to Ki for human thrombin
Rattus norvegicus [50] = assay: Anticoagulant activity in Sprague-Dawley rat deep vein thrombosis model assessed as prothrombin time change at 0.025 mg/kg, iv administered as bolus and 1 ug/kg/min administered as infusion relative to control; format: functional
Plasma [51] = assay: Anticoagulant activity in human plasma assessed as concentration required to double thrombin time; format: functional
Plasma [52] = assay: Anticoagulant activity in human plasma assessed as concentration required to double prothrombin time; format: functional
Rattus norvegicus [53] = assay: Anticoagulant activity in Sprague-Dawley rat deep vein thrombosis model assessed as prothrombin time change at 0.2 mg/kg, iv administered as bolus and 8 ug/kg/min administered as infusion relative to control; format: functional
Trypsin = Trypsin (Homo sapiens, UniProt P07477+P07478+P35030); assay: Inhibition of human trypsin; format: protein assay
[54] = Oral bioavailability in Beagle dog at 10 mg/kg; format: ADME, organism-based, Canis lupus familiaris; conditions: in vivo
Homo sapiens [55] = species: Homo sapiens; assay: Selectivity ratio of Ki for human plasmin to Ki for human thrombin
Homo sapiens [56] = species: Homo sapiens; assay: Selectivity ratio of Ki for human trypsin to Ki for human thrombin
[57] = target: Tissue-type plasminogen activator (Homo sapiens, UniProt P00750); assay: Inhibition of human t-PA
Prothrombin [58] = target: T1, Prothrombin; assay: Inhibition of thrombin (unknown origin) assessed as fibrin clot formation
Prothrombin [59] = target: T1, Prothrombin; assay: Competitive inhibition of human thrombin at 0.25 to 1 nM by Lineweaver-Burk plot analysis

Sequence of Plasminogen (P00747 97-580 limits assumed): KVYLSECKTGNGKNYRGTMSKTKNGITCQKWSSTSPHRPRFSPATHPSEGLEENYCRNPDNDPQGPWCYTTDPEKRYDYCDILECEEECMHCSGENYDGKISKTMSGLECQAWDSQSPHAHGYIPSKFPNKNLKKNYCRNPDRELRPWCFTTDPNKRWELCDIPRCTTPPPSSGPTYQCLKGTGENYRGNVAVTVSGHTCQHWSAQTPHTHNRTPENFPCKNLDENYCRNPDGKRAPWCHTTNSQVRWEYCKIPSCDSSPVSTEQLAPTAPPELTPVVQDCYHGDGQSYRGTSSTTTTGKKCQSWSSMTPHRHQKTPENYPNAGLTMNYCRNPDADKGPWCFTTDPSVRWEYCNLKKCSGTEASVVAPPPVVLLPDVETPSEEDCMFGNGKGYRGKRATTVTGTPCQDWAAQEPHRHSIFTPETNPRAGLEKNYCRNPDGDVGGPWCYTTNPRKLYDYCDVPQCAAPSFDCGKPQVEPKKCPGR
Sequence of Plasminogen (P00747 581-810 limits assumed): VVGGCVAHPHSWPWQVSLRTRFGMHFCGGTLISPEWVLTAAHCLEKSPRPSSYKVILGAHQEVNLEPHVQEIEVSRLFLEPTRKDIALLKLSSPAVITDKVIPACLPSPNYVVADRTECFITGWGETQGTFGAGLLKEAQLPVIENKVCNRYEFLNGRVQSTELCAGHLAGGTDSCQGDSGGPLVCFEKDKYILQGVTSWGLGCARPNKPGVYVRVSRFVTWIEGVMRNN
Sequence of Coagulation factor X (P00742 41-179 limits assumed): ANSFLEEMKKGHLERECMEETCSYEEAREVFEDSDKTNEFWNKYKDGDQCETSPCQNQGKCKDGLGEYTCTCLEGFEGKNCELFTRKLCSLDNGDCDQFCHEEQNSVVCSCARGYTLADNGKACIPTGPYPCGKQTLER
Sequence of Coagulation factor X (P00742 235-488 limits assumed): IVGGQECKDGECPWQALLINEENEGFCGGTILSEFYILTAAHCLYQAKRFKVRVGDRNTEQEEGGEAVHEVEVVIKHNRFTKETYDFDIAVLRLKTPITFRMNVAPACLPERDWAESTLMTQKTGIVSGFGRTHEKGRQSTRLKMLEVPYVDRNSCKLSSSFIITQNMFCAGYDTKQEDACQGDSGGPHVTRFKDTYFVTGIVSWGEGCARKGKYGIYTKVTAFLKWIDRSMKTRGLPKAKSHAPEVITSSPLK
Sequence of Tissue-type plasminogen activator (P00750 whole entry): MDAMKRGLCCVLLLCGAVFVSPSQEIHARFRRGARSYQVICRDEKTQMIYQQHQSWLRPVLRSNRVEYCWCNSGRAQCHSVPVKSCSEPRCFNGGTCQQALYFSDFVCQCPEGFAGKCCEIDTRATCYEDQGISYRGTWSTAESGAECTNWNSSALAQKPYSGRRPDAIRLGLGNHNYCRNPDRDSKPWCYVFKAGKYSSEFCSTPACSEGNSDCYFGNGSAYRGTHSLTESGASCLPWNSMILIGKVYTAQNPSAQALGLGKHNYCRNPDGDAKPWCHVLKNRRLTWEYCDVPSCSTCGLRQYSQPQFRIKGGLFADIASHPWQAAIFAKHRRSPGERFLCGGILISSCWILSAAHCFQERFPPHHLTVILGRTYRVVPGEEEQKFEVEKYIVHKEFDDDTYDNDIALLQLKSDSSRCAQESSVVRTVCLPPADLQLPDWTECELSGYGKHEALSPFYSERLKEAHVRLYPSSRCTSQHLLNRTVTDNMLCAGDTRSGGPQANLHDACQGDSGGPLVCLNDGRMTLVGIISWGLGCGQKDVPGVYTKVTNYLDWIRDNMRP

N=C(N)c1ccc(CNC(=O)[C@@H]2CCCN2C(=O)[C@@H](NCC(=O)O)C(c2ccccc2)c2ccccc2)s1 showed a bioavailability [1] of 30%, a fraction unbound at 30 ug/ml [2] of 0.182 and a fraction unbound at 30 ug/ml [3] of 0.508. For the same compound, the Cmax [4] was 2900 ng/mL, the Ki (Coagulation factor X) was 2250 nM and the Activity (Rattus norvegicus [5]) was 46 mg. The “fold change (FC)” value (Rattus norvegicus [6]) was 1.68, the Activity (Rattus norvegicus [7]) was 23 mg and the logD [8] was -0.088. The fraction unbound at 5 ug/ml [9] was 0.482, the Activity (Rattus norvegicus [10]) was 0 mg and the AUC [11] was 12200 ng·h/mL. The 2aPTT (Plasma [12]) was 0.51 µM, the Activity (Plasma [12]; Macaca mulatta) was “Dose-dependent effect” and the pKa [13] was 1.91. The Ki (Prothrombin [14]) was 0.02 nM, the 2TT (Plasma [15]) was 0.01 µM and the Activity (Plasma [15]) was “Dose-dependent effect”. For the same compound, the 2aPTT (Plasma [16]) was 0.23 µM, the Activity (Plasma [16]) was “Dose-dependent effect” and the Ki (Plasminogen) was 7430 nM. The AUC [17] was 9270 ng·h/mL, the IC50 (Prothrombin [18]) was 5 nM and the “fold change (FC)” value (Rattus norvegicus [19]) was 5.58. The 2aPTT (Plasma [20]) was 0.97 µM, the Activity (Plasma [20]) was “Dose-dependent effect” and the 2PT (Plasma [21]) was 2.04 µM. For the same compound, the Activity (Plasma [21]; Oryctolagus cuniculus) was “Dose-dependent effect”, the fraction unbound at 5 ug/ml [22] was 0.177 and the 2TT (Plasma [23]) was greater than 0.2 µM. The Activity (Plasma [23]; Macaca mulatta) was “Dose-dependent effect”, the solubility [24] was 460 µg/mL (≈ 862 µM) and the fraction unbound at 1 ug/ml [25] was 0.174. The “fold change (FC)” value (Rattus norvegicus [26]) was 1.15, the “fold change (FC)” value (Rattus norvegicus [27]) was 2.07 and the 2TT (Plasma [28]) was 0.019 µM. The Activity (Plasma [28]; Oryctolagus cuniculus) was “Dose-dependent effect”, the Kd (Prothrombin [29]) was 0.18 nM and the 2aPTT (Plasma [30]) was 1.1 µM. For the same compound, the Activity (Plasma [30]; Oryctolagus cuniculus) was “Dose-dependent effect”, the fraction unbound at 30 ug/ml [31] was 0.216 and the Activity (Rattus norvegicus [32]) was “Dose-dependent effect”. The 2PT (Plasma [33]) was 0.3 µM, the Activity (Plasma [33]; Macaca mulatta) was “Dose-dependent effect” and the fraction unbound at 5 ug/ml [34] was 0.147. The 2PT (Plasma [35]) was 1.12 µM, the Activity (Plasma [35]) was “Dose-dependent effect” and the “fold change (FC)” value (Rattus norvegicus [36]) was 17.2. For the same compound, the Ratio Ki (Homo sapiens [37]) was greater than 10000, the Cmax [38] was 6900 ng/mL and the bioavailability [39] was 15%. The “fold change (FC)” value (Rattus norvegicus [40]) was 3.58, the fraction unbound at 1 ug/ml [41] was 0.124 and the “fold change (FC)” value (Rattus norvegicus [42]) was 4.37. It also gave a fraction unbound at 1 ug/ml [43] of 0.485, an ED50 (Rattus norvegicus [44]) of 2 µg/kg/min and a solubility [45] of 15000 µg/mL (≈ 28200 µM). The “fold change (FC)” value (Rattus norvegicus [46]) was 2.77, the IC50 (Prothrombin [47]) was 2.1 nM and the solubility [48] was 570 µg/mL (≈ 1070 µM). The Ratio Ki (Homo sapiens [49]) was 5210, the “fold change (FC)” value (Rattus norvegicus [50]) was 1.03 and the 2TT (Plasma [51]) was 0.016 µM. For the same compound, the Activity (Plasma [51]) was “Dose-dependent effect”, the 2PT (Plasma [52]) was 0.66 µM and the Activity (Plasma [52]) was “Dose-dependent effect”. The “fold change (FC)” value (Rattus norvegicus [53]) was 9.04, the Ki (Trypsin) was 0.3 nM and the bioavailability [54] was 43%. The Ratio Ki (Homo sapiens [55]) was greater than 10000, the Ratio Ki (Homo sapiens [56]) was 13.7 and the Ki [57] was 113 nM. For the same compound, the IC50 (Prothrombin [58]) was 16 nM and the inhibition (Prothrombin [59]) was “Active”.
